Experiments:
Format in all cases: functional
HeLa [1] = test: Induction of apoptosis in human HeLa cells assessed as late apoptotic cells at 26.1 uM incubated for 48 hrs by annexinV-FITC/propidium iodide staining based flow cytometry analysis (reference value: 0.1%)
HeLa [2] = test: Induction of apoptosis in human HeLa cells assessed as viable cells at 13.2 uM incubated for 48 hrs by annexinV-FITC/propidium iodide staining based flow cytometry analysis (reference value: 99.8%); details: read-out: Activity
HeLa [3] = test: Induction of apoptosis in human HeLa cells assessed as early apoptotic cells at 13.2 uM incubated for 48 hrs by annexinV-FITC/propidium iodide staining based flow cytometry analysis (reference value: 0.1%)
HeLa [4] = test: Induction of apoptosis in human HeLa cells assessed as late apoptotic cells at 13.2 uM incubated for 48 hrs by annexinV-FITC/propidium iodide staining based flow cytometry analysis (reference value: 0.1%)
HeLa [5] = test: Induction of apoptosis in human HeLa cells assessed as necrotic cells at 13.2 uM incubated for 48 hrs by annexinV-FITC/propidium iodide staining based flow cytometry analysis (reference value: 0.0%)
HeLa [6] = test: Induction of apoptosis in human HeLa cells assessed as viable cells at 19.6 uM incubated for 48 hrs by annexinV-FITC/propidium iodide staining based flow cytometry analysis (reference value: 99.8%); details: read-out: Activity
HeLa [7] = test: Induction of apoptosis in human HeLa cells assessed as early apoptotic cells at 19.6 uM incubated for 48 hrs by annexinV-FITC/propidium iodide staining based flow cytometry analysis (reference value: 0.1%)
HeLa [8] = test: Induction of apoptosis in human HeLa cells assessed as late apoptotic cells at 19.6 uM incubated for 48 hrs by annexinV-FITC/propidium iodide staining based flow cytometry analysis (reference value: 0.1%)
HeLa [9] = test: Induction of apoptosis in human HeLa cells assessed as necrotic cells at 19.6 uM incubated for 48 hrs by annexinV-FITC/propidium iodide staining based flow cytometry analysis (reference value: 0.0%)
HeLa [10] = test: Induction of cell cycle arrest in human HeLa cells assessed as 2N cells at 12.3 uM incubated for 12 hrs by RNAse A/PI staining based flow cytometric analysis (reference value: 29.9%)
HeLa [11] = test: Induction of cell cycle arrest in human HeLa cells assessed as S phase cells at 12.3 uM incubated for 12 hrs by RNAse A/PI staining based flow cytometric analysis (reference value: 20.5%)
HeLa [12] = test: Induction of cell cycle arrest in human HeLa cells assessed as S phase cells at 12.3 uM incubated for 24 hrs by RNAse A/PI staining based flow cytometric analysis (reference value: 20.5%)
HeLa [13] = test: Induction of cell cycle arrest in human HeLa cells assessed as >4N cells at 12.3 uM incubated for 24 hrs by RNAse A/PI staining based flow cytometric analysis (reference value: 2.61%)
HeLa [14] = test: Induction of cell cycle arrest in human HeLa cells assessed as <2N cells at 6.2 uM incubated for 48 hrs by RNAse A/PI staining based flow cytometric analysis (reference value: 41.6%)
HeLa [15] = test: Induction of cell cycle arrest in human HeLa cells assessed as 2N cells at 6.2 uM incubated for 48 hrs by RNAse A/PI staining based flow cytometric analysis (reference value: 29.9%)
HeLa [16] = test: Induction of cell cycle arrest in human HeLa cells assessed as 4N cells at 6.2 uM incubated for 48 hrs by RNAse A/PI staining based flow cytometric analysis (reference value: 5.37%)
HeLa [17] = test: Induction of cell cycle arrest in human HeLa cells assessed as >4N cells at 6.2 uM incubated for 48 hrs by RNAse A/PI staining based flow cytometric analysis (reference value: 2.61%)
HeLa [18] = test: Induction of cell cycle arrest in human HeLa cells assessed as <2N cells at 12.3 uM incubated for 48 hrs by RNAse A/PI staining based flow cytometric analysis (reference value: 41.6%)
HeLa [19] = test: Induction of cell cycle arrest in human HeLa cells assessed as 2N cells at 12.3 uM incubated for 48 hrs by RNAse A/PI staining based flow cytometric analysis (reference value: 29.9%)
HeLa [20] = test: Induction of cell cycle arrest in human HeLa cells assessed as S phase cells at 12.3 uM incubated for 48 hrs by RNAse A/PI staining based flow cytometric analysis (reference value: 20.5%)
HeLa [21] = test: Induction of cell cycle arrest in human HeLa cells assessed as 4N cells at 12.3 uM incubated for 48 hrs by RNAse A/PI staining based flow cytometric analysis (reference value: 5.37%)
HeLa [22] = test: Induction of cell cycle arrest in human HeLa cells assessed as >4N cells at 12.3 uM incubated for 48 hrs by RNAse A/PI staining based flow cytometric analysis (reference value: 2.61%)
HeLa [23] = test: Induction of cell cycle arrest in human HeLa cells assessed as <2N cells at 24.6 uM incubated for 48 hrs by RNAse A/PI staining based flow cytometric analysis (reference value: 41.6%)
HeLa [24] = test: Induction of cell cycle arrest in human HeLa cells assessed as S phase cells at 24.6 uM incubated for 48 hrs by RNAse A/PI staining based flow cytometric analysis (reference value: 20.5%)
HeLa [25] = test: Induction of cell cycle arrest in human HeLa cells assessed as 4N cells at 24.6 uM incubated for 48 hrs by RNAse A/PI staining based flow cytometric analysis (reference value: 5.37%)
HeLa [26] = test: Induction of cell cycle arrest in human HeLa cells assessed as >4N cells at 24.6 uM incubated for 48 hrs by RNAse A/PI staining based flow cytometric analysis (reference value: 2.61%)
HeLa [27] = test: Induction of cell cycle arrest in human HeLa cells assessed as accumulation at G2/M phase at 6.2 uM by RNAse A/PI staining based flow cytometric analysis relative to control
HeLa [28] = test: Induction of cell cycle arrest in human HeLa cells assessed as accumulation at G2/M phase at 12.3 uM by RNAse A/PI staining based flow cytometric analysis relative to control
HeLa [29] = test: Induction of cell cycle arrest in human HeLa cells assessed as accumulation at G2/M phase at 24.6 uM by RNAse A/PI staining based flow cytometric analysis relative to control
HeLa [30] = test: Induction of mitochondrial membrane potential loss in human HeLa cells assessed as decrease in fluorescence intensity […] at 6.2 uM by Rhodamine 123 staining based flow cytometric analysis (reference value: 58.0%); design: scale not given: the % may be the effect or the level left
HeLa [31] = test: Induction of mitochondrial membrane potential loss in human HeLa cells assessed as decrease in fluorescence intensity […] at 12.3 uM by Rhodamine 123 staining based flow cytometric analysis (reference value: 58.0%); design: scale not given: the % may be the effect or the level left
HeLa [32] = test: Induction of mitochondrial membrane potential loss in human HeLa cells assessed as decrease in fluorescence intensity […] at 24.6 uM by Rhodamine 123 staining based flow cytometric analysis (reference value: 58.0%); design: scale not given: the % may be the effect or the level left

With `CC[C@H](C)[C@@H]1NC(=O)[C@H](CC(C)C)NC(=O)[C@@H]2CSCN2C(=O)[C@@H]2CSCN2C(=O)CN2C(=O)c3ccccc3[C@@]2(O)CN(Cc2ccccc2)C1=O` the Activity (HeLa [1]) was 6.4%, the viability at 13.2 µM (HeLa [2]) was 84.5% and the Activity (HeLa [3]) was 5.6%. It also gave an Activity (HeLa [4]) of 7.3%, an Activity (HeLa [5]) of 2.6% and a viability at 19.6 µM (HeLa [6]) of 68.6%. For the same molecule, the Activity (HeLa [7]) was 23.3%, the Activity (HeLa [8]) was 6.7% and the Activity (HeLa [9]) was 1.3%. For the same molecule, the Activity (HeLa [10]) was 28.8%, the Activity (HeLa [11]) was 11.5% and the Activity (HeLa [12]) was 10.2%. For the same molecule, the Activity (HeLa [13]) was 11%, the Activity (HeLa [14]) was 37.5% and the Activity (HeLa [15]) was 24.9%. The Activity (HeLa [16]) was 17%, the Activity (HeLa [17]) was 9.53% and the Activity (HeLa [18]) was 14.9%. For the same molecule, the Activity (HeLa [19]) was 28.1%, the Activity (HeLa [20]) was 21.3% and the Activity (HeLa [21]) was 35.7%. It also gave an Activity (HeLa [22]) of 0%, an Activity (HeLa [23]) of 14.4% and an Activity (HeLa [24]) of 5.72%. It also gave an Activity (HeLa [25]) of 47.5%, an Activity (HeLa [26]) of 3.51% and an Activity (HeLa [27]) of 17%. The Activity (HeLa [28]) was 35.7%, the Activity (HeLa [29]) was 47.5% and the Activity (HeLa [30]) was 52.6%. For the same molecule, the Activity (HeLa [31]) was 32.3% and the Activity (HeLa [32]) was 19.4%.
